Assay results from publication PMC7614683, “A small molecule PI3Kα activator for cardioprotection and neuroregeneration” (Nature, 2023).

Molecular target: T1, full length p110α/p85α (Homo sapiens, UniProt P42336)
T1 construct: Full-length human p110α was expressed either in a complex with full-length human p85α (for HTS, biochemistry and HDX-MS); 6xHis tag followed by TEV protease site (N); host or cells: Spodoptera frugiperda Sf9, baculovirus
Assay: HDX-MS
Assay type: binding
Experimental: Sample preparation: HDX-MS experiments were carried out as described previously. […] In total, three biological replicates, i.e. three separate protein preparations, each with exchange experiments carried out in triplicate were conducted. Data presented in the manuscript is a single biological replicate. Data acquisition and analysis were as follows: Each sample was thawed and injected onto an M-Class Acquity UPLC with HDX Technology (Waters) kept at 0.1°C. Proteins were digested in-line using an Enzymate Pepsin Column (Waters, #186007233) at 15°C for 2 min at 200 μl/min. Peptic peptides were then eluted onto an Acquity UPLC BEH C18 Column (Waters, #186002346) equilibrated in Pepsin-A buffer (0.1% formic acid) and separated using a 5-35% gradient of Pepsin-B buffer (0.1% formic acid, 99% acetonitrile) over 7 min at a flowrate of 40 μl/min. Data were collected on a Waters Cyclic IMS, with an electrospray ionisation source, from 50-2000 m/z. Data were collected in the HDMS^E mode. A single pass of the cyclic IMS was conducted. A “blank” sample of protein dilution buffer with quench was run between samples, and carry-over of peptides was routinely monitored. Five replicates were used to identify non-deuterated peptides. Criteria used to include peptides in the HDX-MS dataset were: minimum intensity 5000, minimum sequence length 5, maximum sequence length 25, a minimum of 3 fragment ions, a minimum of 0.1 products per amino acid, a minimum score of 6.62, a maximum MH+ Error of 10 ppm, identification in at least two datasets with a retention time RSD of less than 10%. Data was analysed using Protein Lynx Global Server (Waters) and DynamX (Waters). All peptides were manually inspected for EX1 kinetics and sufficient quality of the peptide envelope. Data quality, experiment design, and reporting of data meets the criteria as determined by the HDX-MS community. Uptake files were created using Baryonyx. Data are available via ProteomeXchange with identifier PXD037721.

[1] = PK3CA_HUMAN peptide 334-341, time point 1 of 5
[2] = PK3CA_HUMAN peptide 334-341, time point 2 of 5
[3] = PK3CA_HUMAN peptide 334-341, time point 3 of 5
[4] = PK3CA_HUMAN peptide 334-341, time point 4 of 5
[5] = PK3CA_HUMAN peptide 334-341, time point 5 of 5
[6] = PK3CA_HUMAN peptide 342-356, time point 1 of 5
[7] = PK3CA_HUMAN peptide 342-356, time point 2 of 5
[8] = PK3CA_HUMAN peptide 342-356, time point 3 of 5
[9] = PK3CA_HUMAN peptide 342-356, time point 4 of 5
[10] = PK3CA_HUMAN peptide 342-356, time point 5 of 5
[11] = PK3CA_HUMAN peptide 356-368, time point 1 of 5
[12] = PK3CA_HUMAN peptide 356-368, time point 2 of 5
[13] = PK3CA_HUMAN peptide 356-368, time point 3 of 5
[14] = PK3CA_HUMAN peptide 356-368, time point 4 of 5
[15] = PK3CA_HUMAN peptide 356-368, time point 5 of 5
[16] = PK3CA_HUMAN peptide 369-380, time point 1 of 5
[17] = PK3CA_HUMAN peptide 369-380, time point 2 of 5
[18] = PK3CA_HUMAN peptide 369-380, time point 3 of 5
[19] = PK3CA_HUMAN peptide 369-380, time point 4 of 5
[20] = PK3CA_HUMAN peptide 369-380, time point 5 of 5
[21] = PK3CA_HUMAN peptide 371-380, time point 1 of 5
[22] = PK3CA_HUMAN peptide 371-380, time point 2 of 5
[23] = PK3CA_HUMAN peptide 371-380, time point 3 of 5
[24] = PK3CA_HUMAN peptide 371-380, time point 4 of 5
[25] = PK3CA_HUMAN peptide 371-380, time point 5 of 5

T1 sequence (P42336 whole entry): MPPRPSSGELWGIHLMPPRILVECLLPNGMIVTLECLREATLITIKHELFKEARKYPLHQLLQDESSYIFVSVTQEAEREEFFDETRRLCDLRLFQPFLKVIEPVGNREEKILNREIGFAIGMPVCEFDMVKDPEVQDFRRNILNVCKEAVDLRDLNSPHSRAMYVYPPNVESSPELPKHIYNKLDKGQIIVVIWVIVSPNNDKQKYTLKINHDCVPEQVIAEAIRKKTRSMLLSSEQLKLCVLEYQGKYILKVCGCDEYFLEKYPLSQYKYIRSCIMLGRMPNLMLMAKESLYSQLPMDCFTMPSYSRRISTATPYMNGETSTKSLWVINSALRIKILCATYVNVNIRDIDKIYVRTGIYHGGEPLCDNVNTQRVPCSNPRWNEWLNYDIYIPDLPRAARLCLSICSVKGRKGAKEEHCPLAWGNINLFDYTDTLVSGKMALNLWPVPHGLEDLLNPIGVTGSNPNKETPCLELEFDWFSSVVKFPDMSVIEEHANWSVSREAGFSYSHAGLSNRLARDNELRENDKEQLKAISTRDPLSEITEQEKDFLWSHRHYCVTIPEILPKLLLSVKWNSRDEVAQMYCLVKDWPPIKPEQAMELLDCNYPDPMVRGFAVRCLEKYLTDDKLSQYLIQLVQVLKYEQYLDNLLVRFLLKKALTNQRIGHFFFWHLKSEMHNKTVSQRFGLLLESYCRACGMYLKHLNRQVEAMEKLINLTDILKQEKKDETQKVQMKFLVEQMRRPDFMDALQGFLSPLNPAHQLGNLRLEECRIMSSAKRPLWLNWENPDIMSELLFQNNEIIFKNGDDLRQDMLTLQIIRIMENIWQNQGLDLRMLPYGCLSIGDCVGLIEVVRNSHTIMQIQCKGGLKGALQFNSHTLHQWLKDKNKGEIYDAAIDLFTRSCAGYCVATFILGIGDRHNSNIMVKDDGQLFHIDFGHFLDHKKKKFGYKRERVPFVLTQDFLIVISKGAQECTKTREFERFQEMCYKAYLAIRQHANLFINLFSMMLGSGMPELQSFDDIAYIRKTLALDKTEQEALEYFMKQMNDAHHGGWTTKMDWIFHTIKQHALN
T1 sequence (P27986 whole entry partner): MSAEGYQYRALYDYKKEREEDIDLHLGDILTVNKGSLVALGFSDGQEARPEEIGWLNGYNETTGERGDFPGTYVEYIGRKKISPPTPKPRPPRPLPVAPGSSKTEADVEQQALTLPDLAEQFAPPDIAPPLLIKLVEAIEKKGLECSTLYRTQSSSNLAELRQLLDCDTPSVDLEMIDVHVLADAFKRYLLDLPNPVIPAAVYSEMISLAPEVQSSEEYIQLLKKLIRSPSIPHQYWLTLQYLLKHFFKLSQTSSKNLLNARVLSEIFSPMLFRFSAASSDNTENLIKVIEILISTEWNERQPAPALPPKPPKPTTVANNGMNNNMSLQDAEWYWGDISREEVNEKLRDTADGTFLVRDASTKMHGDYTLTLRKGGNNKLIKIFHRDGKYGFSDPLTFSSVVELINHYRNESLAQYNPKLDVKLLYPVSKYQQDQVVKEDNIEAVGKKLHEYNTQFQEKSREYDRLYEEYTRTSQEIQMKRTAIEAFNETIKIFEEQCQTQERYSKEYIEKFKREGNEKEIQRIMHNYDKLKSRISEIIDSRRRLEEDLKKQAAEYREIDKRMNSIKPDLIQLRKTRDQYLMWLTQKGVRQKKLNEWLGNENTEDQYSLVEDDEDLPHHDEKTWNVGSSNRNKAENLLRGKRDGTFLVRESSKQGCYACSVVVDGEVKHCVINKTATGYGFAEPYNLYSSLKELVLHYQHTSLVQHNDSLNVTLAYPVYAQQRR

## CCN1CCN(c2ccc(Nc3cc(Nc4cccc5c4N(C(C)=O)CC5)ccn3)cc2)CC1 [Compound 1938]
PK3CA_HUMAN peptide 326-333, time point 5 of 5
  HDX difference (Da): -0.29 Da
[1]
  HDX difference (%D): -1.6%
  HDX difference (Da): -0.11 Da
[2]
  HDX difference (%D): -0.186%
  HDX difference (Da): -0.013 Da
[3]
  HDX difference (%D): -0.0541%
  HDX difference (Da): -0.00379 Da
[4]
  HDX difference (%D): 0.367%
  HDX difference (Da): 0.0257 Da
[5]
  HDX difference (%D): 0.162%
  HDX difference (Da): 0.0113 Da
[6]
  HDX difference (%D): -1.7%
  HDX difference (Da): -0.24 Da
[7]
  HDX difference (%D): 0.845%
  HDX difference (Da): 0.12 Da
[8]
  HDX difference (%D): 0.00161%
  HDX difference (Da): 0.000225 Da
[9]
  HDX difference (%D): 1.1%
  HDX difference (Da): 0.16 Da
[10]
  HDX difference (%D): 0.6%
  HDX difference (Da): 0.09 Da
[11]
  HDX difference (%D): -0.8%
  HDX difference (Da): -0.10 Da
[12]
  HDX difference (%D): -1.0%
  HDX difference (Da): -0.12 Da
[13]
  HDX difference (%D): 0.8%
  HDX difference (Da): 0.09 Da
[14]
  HDX difference (%D): 0.0672%
  HDX difference (Da): 0.00807 Da
[15]
  HDX difference (%D): 0.6%
  HDX difference (Da): 0.0745 Da
[16]
  HDX difference (%D): -2.7%
  HDX difference (Da): -0.30 Da
[17]
  HDX difference (%D): 1.2%
  HDX difference (Da): 0.14 Da
[18]
  HDX difference (%D): -1.1%
  HDX difference (Da): -0.12 Da
[19]
  HDX difference (%D): -0.8%
  HDX difference (Da): -0.08 Da
[20]
  HDX difference (%D): 0.6%
  HDX difference (Da): 0.07 Da
[21]
  HDX difference (%D): -3.7%
  HDX difference (Da): -0.33 Da
[22]
  HDX difference (%D): -0.454%
  HDX difference (Da): -0.04 Da
[23]
  HDX difference (%D): -1.7%
  HDX difference (Da): -0.15 Da
[24]
  HDX difference (%D): -2.6%
  HDX difference (Da): -0.23 Da
[25]
  HDX difference (%D): 0.329%
  HDX difference (Da): 0.03 Da
PK3CA_HUMAN peptide 457-466, time column 1 of 5, deuterium exchange time 0.005
  HDX difference, percentage: -0.467%
PK3CA_HUMAN peptide 457-466, time column 2 of 5, deuterium exchange time 0.05
  HDX difference, percentage: -0.449%
PK3CA_HUMAN peptide 457-466, time column 3 of 5, deuterium exchange time 0.5
  HDX difference, percentage: 0.346%
PK3CA_HUMAN peptide 457-466, time column 4 of 5, deuterium exchange time 5
  HDX difference, percentage: -0.9%
PK3CA_HUMAN peptide 457-466, time column 5 of 5
  HDX difference, percentage: -1.0%
PK3CA_HUMAN peptide 467-476, time column 1 of 5, deuterium exchange time 0.005
  HDX difference, percentage: -1.4%
PK3CA_HUMAN peptide 467-476, time column 2 of 5, deuterium exchange time 0.05
  HDX difference, percentage: -0.5%
PK3CA_HUMAN peptide 467-476, time column 3 of 5, deuterium exchange time 0.5
  HDX difference, percentage: -0.7%
PK3CA_HUMAN peptide 467-476, time column 4 of 5, deuterium exchange time 5
  HDX difference, percentage: -0.9%
PK3CA_HUMAN peptide 467-476, time column 5 of 5
  HDX difference, percentage: -0.552%
PK3CA_HUMAN peptide 477-486, time column 1 of 5, deuterium exchange time 0.005
  HDX difference, percentage: -1.6%
PK3CA_HUMAN peptide 477-486, time column 2 of 5, deuterium exchange time 0.05
  HDX difference, percentage: 0.186%
PK3CA_HUMAN peptide 477-486, time column 3 of 5, deuterium exchange time 0.5
  HDX difference, percentage: 0.327%
PK3CA_HUMAN peptide 477-486, time column 4 of 5, deuterium exchange time 5
  HDX difference, percentage: -0.0919%
PK3CA_HUMAN peptide 477-486, time column 5 of 5
  HDX difference, percentage: 0.0363%
PK3CA_HUMAN peptide 487-495, time column 1 of 5, deuterium exchange time 0.005
  HDX difference, percentage: -0.747%
PK3CA_HUMAN peptide 487-495, time column 2 of 5, deuterium exchange time 0.05
  HDX difference, percentage: 0.4%
PK3CA_HUMAN peptide 487-495, time column 3 of 5, deuterium exchange time 0.5
  HDX difference, percentage: 0.0115%
PK3CA_HUMAN peptide 487-495, time column 4 of 5, deuterium exchange time 5
  HDX difference, percentage: -0.8%
PK3CA_HUMAN peptide 487-495, time column 5 of 5
  HDX difference, percentage: -0.2%
PK3CA_HUMAN peptide 487-498, time column 1 of 5, deuterium exchange time 0.005
  HDX difference, percentage: -0.239%
PK3CA_HUMAN peptide 487-498, time column 2 of 5, deuterium exchange time 0.05
  HDX difference, percentage: -0.449%
PK3CA_HUMAN peptide 487-498, time column 3 of 5, deuterium exchange time 0.5
  HDX difference, percentage: 0.176%
PK3CA_HUMAN peptide 487-498, time column 4 of 5, deuterium exchange time 5
  HDX difference, percentage: -1.0%
